Data published in US20230372272A1, “USE OF CYSTINE AND DERIVATIVES THEREOF AS ANTI-THROMBOTIC AND THROMBOLYTIC AGENTS” (Georgia Tech Research Corporation, priority 2020, published 2023).

Columns and labels:
[1] = tested on: platelet-rich thrombi from heparinized human whole blood; test: Example 4: thrombolysis of human blood thrombi in 3 mm collagen-coated stenotic capillary tubes; type: cell-based; conditions: perfusion, human whole blood thrombus
Experimental: In this example, an in-vitro randomized trial was performed using heparinized human blood in collagen-coated glass capillary tubes with a designed stenosis, mimicking arterial disease. Heparinized human blood was then infused through 3 mm capillary tubes at a constant flow rate, during which near-occlusive thrombi were formed at the region of stenosis (FIG. 11). DiNAC was then infused at a constant flow rate through the capillary tubes in order to observe thrombolytic activity, using a combination of live pressure monitoring and microscopic image capture. All infusions were control-matched with a phosphate-buffered saline solution in lieu of DiNAC.

[2] = tested on: fibrin clots from recalcified citrated whole blood; test: Red clot lysis under stagnant conditions, whole blood clots; type: cell-based, Porcine
Description: (§1) Blood Collection: Porcine blood was collected at a local abattoir immediately following slaughter into 3.5 U/mL heparin (Thermo Fisher Scientific, Waltham, MA) or 3.2% sodium citrate (Sigma-Aldrich, St. Louis, MO). Whole blood was gently agitated using an Orbit LS shaker (Laboratory Supply Network, Atkinson, NH) until perfusion and used in experiments as soon as possible the same day as collection.
(§2) Red clot formation and lysis: Platelet rich plasma (PRP) was made by separating citrated whole blood via gravity over a 2 h period and collecting the supernatant. Separation via gravity was employed instead of centrifugation to avoid platelet damage and activation. Citrated whole blood or PRP was then recalcified with CaCl2 to a final [Ca^2+] of 10 mM (Griffin, M. T., Kim, D. & Ku, D. N. Shear-induced platelet aggregation: 3D-grayscale microfluidics for repeatable and localized occlusive thrombosis. Biomicrofluidics 13, 2019), and 200 μl was transferred into 500 μal centrifuge tubes and allowed to clot and retract for 30 min. The clot was then incubated with 100 μl of either agent or control solution. The treatment solution was exchanged by removing the top 100 μl and replacement with fresh solution at 3, 6, 12, 24, and 48 h of incubation. The weight of the tube was measured immediately post-clot formation and at each timepoint after removal of old solution and prior to the replacement with fresh solution.

[3] = tested on: VWF- and platelet-rich white thrombi; test: Lysis of platelet-rich white thrombi in collagen-coated stenotic capillary tube under arterial shear (perfusion of lytic agents); type: cell-based, Porcine; conditions: 0.02 mg/ml, 60 min perfusion
Experimental: Collagen Coating: The stenotic glass test sections (inner diameter=1.5 mm) described herein were made by the Chemistry and Biochemistry Glass Shop at Georgia Institute of Technology. The % stenosis by diameter reduction ranged from 60% to 80%. Fibrillar equine collagen (type I; Chrono-Log Corporation, Havertown, PA) was diluted 9:1 in NaCl (Sigma-Aldrich, St. Louis, MO) and incubated in the test section at the stenosis for 24 h in a warm, moist environment (Para, A., Bark, D., Lin, A. & Ku, D. Rapid platelet accumulation leading to thrombotic occlusion. Ann Biomed Eng 39, 1961-1971, 2011; Para, A. N. & Ku, D. N. A low-volume, single pass in-vitro system of high shear thrombosis in a stenosis. Thromb Res 131, 418-424, 2013).
as §1
Syringe Perfusion: Lightly heparinized whole blood was perfused through the stenotic test section using a syringe pump. The flow rate was set so that the initial wall shear rate in the stenosis was 3,500 s^−1. A pressure transducer was connected in-line upstream of the stenosis (FIG. 2A). A dissecting microscope with a camera (PCO-Tech Incorporated, Romulus, MI) was used to capture images in real-time during perfusion. Blood perfusion continued until the upstream pressure increased by 30 mmHg (equivalent to an arterial pressure head in vivo) as a result of platelet thrombus formation in the stenotic section. Perfusion with a syringe pump (constant flow rate over constant pressure head) ensured that the thrombi were never fully occlusive, allowing subsequent perfusion for the induction of lysis.
Pharmacologic Agents: Recombinant human tPA (Sigma-Aldrich, St. Louis, MO), recombinant human ADAMTS-13 (MyBiosource, San Diego, CA), abciximab (ReoPro was kindly provided by Dr. Kevin Maher at Emory/CHOA), NAC (Thermo Fisher Scientific, Waltham, MA), and DiNAC (Cayman Chemical, Ann Arbor, Ml) or control (PBS) treatments were perfused for an hour at a flow rate of 1 ml/min. Agent solutions were made by dissolution or dilution in PBS. The in vitro flow system setup and image acquisition are shown in FIG. 2, and the concentrations of each agent are detailed in Table 2.
Real-time image capture (5 frames per second) of the stenosis continued throughout treatment perfusion.
Data Analysis: The thrombi surface area (which was colored green) was calculated using manual pixel counting in the open-source GNU Image Manipulation Program (GIMP, Version 2.10.8, 1995-2018). Surface area reduction was calculated by % pixel reduction versus the occlusion image. Analysis of variance (ANOVA) was used to test for statistical differences between groups, with the significance set at p<0.05.
In this example, a stenotic capillary tube model, which potentiates VWF- and platelet-rich white thrombi in an arterial setting on a collagen-coated stenosis was used (Para, A., Bark, D., Lin, A. & Ku, D. Rapid platelet accumulation leading to thrombotic occlusion. Ann Biomed Eng 39, 1961-1971, 2011; Ku, D. N. & Flannery, C. J. Development of a flow-through system to create occluding thrombus. Biorheology 44, 273-284, 2007; Para, A. N. & Ku, D. N. A low-volume, single pass in-vitro system of high shear thrombosis in a stenosis. Thromb Res 131, 418-424, 2013) to test lysis of 90% occlusive white thrombi (FIG. 2) and perfused low (2 mM) and high (20 mM) concentrations of NAC and DiNAC solutions. As illustrated in FIG. 2. DiNAC, but not NAC, achieved thrombolysis over 60 minutes of perfusion (FIG. 3A-3D). 2 mM and 20 mM DiNAC lysed most of the thrombi (>95%) within 14 min and 1.5 min, respectively (FIG. 3A-3B).

[4] = tested on: fibrin clots from recalcified platelet rich plasma (PRP); test: Red clot lysis under stagnant conditions, PRP clots; type: cell-based, Porcine
Description: as §1, §2

[5] = clinical study; cited from earlier work
[6] = stroke patients, clinical trial; cited from earlier work
[7] = tested on: FeCl3 injury-induced thrombus; parameters: dose or concentration left out as unconfirmed; conditions: after a 60 min treatment; FeCl3 injury in vivo; ADAMTS-13; cited from earlier work

In the case of “tPA: Recombinant human tissue plasminogen activator, a serine protease converting plasminogen to plasmin”, the “effect on clots and flow” value [1] is reported as “did not alter the clots or restore flow”, the “clot dissolution front speed” value ([2]; fibrin clots, static conditions, over 48 h) is reported as roughly 3.5 μm/min and the “whole blood clot lysis over 48 h” value ([2]; whole blood clot, 48 h, DiNAC and NAC at 2 mM) is reported as “large decrease in clot volume”. The “clot weight reduction from baseline” value ([2]; whole blood clot, after 6 h) was 26%, the “thrombus surface area reduction” value [3] was 23±4% and the “PRP clot lysis over 48 h” value ([4]; 48 h, DiNAC and NAC at 2 mM) was “large decrease in clot volume”. For the same substance, the “clot weight reduction from baseline” value ([4]; after 12 h) was 36%, the recanalization rate [5] was “less than 30%” and the “relative risk reduction versus the placebo” value [6] was 30%. For the same substance, the “reduction of thrombus size” value [7] was 53.2%.
